From paper PMC8185074, “Anchor extension: a structure-guided approach to design cyclic peptides targeting enzyme active sites” (Nature Communications, 2021)
Read-outs that look alike come from different tables or passages of the source. Peptide text beside a SMILES is read from it.

Target: T1, HDAC2 (Homo sapiens, UniProt Q92769)
T1 construct: purchased Reaction Biology Corporation (assay run by the CRO)
Experiment: Initial HDAC2 IC50 estimate (BPS Biosciences HDAC fluorogenic assay kit)
Assay type: biochemical
Conditions: Supplementary Dataset 2
Procedure: Initial IC50 values were estimated using HDAC fluorogenic assay kits from BPS Biosciences (HDAC2, HDAC4, and HDAC6) following the protocol described in the kit. All the measures were performed in duplicates or triplicates. These measurements were done either on full range of concentrations (1:10 dilution from 1 µM to 100 pM) or on two concentrations only (20 nM and 200 nM) as an estimate of the range. […] Source Data are provided as a Source Data file.

[1] = HDAC2 activity (initial activity)

T1 sequence (Q92769 whole entry): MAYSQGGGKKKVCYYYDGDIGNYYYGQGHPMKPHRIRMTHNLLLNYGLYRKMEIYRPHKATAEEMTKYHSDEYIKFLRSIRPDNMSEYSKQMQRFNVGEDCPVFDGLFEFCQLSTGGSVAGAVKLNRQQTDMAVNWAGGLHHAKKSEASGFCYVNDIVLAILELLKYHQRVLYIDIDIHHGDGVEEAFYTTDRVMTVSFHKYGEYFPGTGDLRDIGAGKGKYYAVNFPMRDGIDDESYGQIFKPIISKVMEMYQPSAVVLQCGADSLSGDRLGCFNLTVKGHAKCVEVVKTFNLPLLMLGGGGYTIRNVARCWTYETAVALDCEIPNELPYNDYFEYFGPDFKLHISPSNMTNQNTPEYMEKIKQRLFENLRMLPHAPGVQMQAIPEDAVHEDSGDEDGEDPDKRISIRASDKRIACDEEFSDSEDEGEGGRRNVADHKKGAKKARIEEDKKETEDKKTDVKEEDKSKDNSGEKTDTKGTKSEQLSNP

SMILES	IC50 (read-out: HDAC2 activity (initial activity)) [nM]	IC50 [1] [nM]
CCCC[C@H]1NC(=O)[C@@H](CCCCN)NC(=O)[C@H](CCCCCS)NC(=O)[C@@H](C)NC(=O)[C@H](CCCNC(=N)N)NC(=O)[C@@H]([C@H](C)O)NC(=O)[C@@H](CC(N)=O)NC(=O)[C@H](CCC(=O)O)NC1=O [des1.2.0, SHA-dLys-dNle-Glu-dAsn-dThr-Arg-dAla] (HELM PEPTIDE1{E.[dN].[dT].R.[dA].[O=C([C@H](CCCCCS)N[*:1])[*:2]].[dK].[CCCC[C@@H](N[*:1])C(=O)[*:2]]}$PEPTIDE1,PEPTIDE1,1:R1-8:R2$$$V2.0)	100000	–
C[C@H]1NC(=O)[C@H](CCCNC(=N)N)NC(=O)[C@@H](CC(N)=O)NC(=O)[C@@H](CC(N)=O)NC(=O)[C@H](CCC(=O)O)NC(=O)[C@@H](CC(=O)O)NC(=O)[C@@H](CC(N)=O)NC(=O)[C@H](CCCCCS)NC1=O [des1.3.0, SHA-dAsn-dAsp-Glu-dAsn-dAsn-Arg-dAla] (HELM PEPTIDE1{E.[dN].[dN].R.[dA].[O=C([C@H](CCCCCS)N[*:1])[*:2]].[dN].[dD]}$PEPTIDE1,PEPTIDE1,1:R1-8:R2$$$V2.0)	–	1000
CC(C)C[C@H]1NC(=O)[C@H](Cc2c[nH]c3ccccc23)NC(=O)[C@H](CCCCCS)NC(=O)[C@@H](Cc2ccc(O)cc2)NC(=O)[C@@H]([C@H](C)O)NC(=O)[C@H](Cc2c[nH]cn2)NC(=O)CNC(=O)[C@H]2CCCN2C(=O)[C@@H](CO)NC1=O [des2.2.2, SHA-Trp-dLeu-dSer-dPro-Gly-His-dThr-dTyr] (HELM PEPTIDE1{G.H.[dT].[dY].[O=C([C@H](CCCCCS)N[*:1])[*:2]].W.[dL].[dS].[dP]}$PEPTIDE1,PEPTIDE1,1:R1-9:R2$$$V2.0)	–	500
